What was measured:
[1] = test system: NCI-H82; experiment: Cell viability MTS assay; type: cell-based, human
Experimental: (§1) Cell viability was determined by measuring the activity of dehydrogenase enzymes in metabolically active cells using a tetrazolium compound, MTS. The assay was performed as described in Promega Technical Bulletin No. 169 (CellTiter 96 Aqueous Non-Radioactive Cell Proliferation Assay). Thirteen human cancer cell lines were assayed (see, e.g., Table 1). Cells were maintained at 37° C., 5% CO2. Adherent cells were maintained DMEM media (4.5 g/L glucose) supplemented with 15% heat-inactivated FBS, 10 mM L-glutamine, and 10 mM Hepes pH 7.5. Suspension cells were maintained in RPMI 1640 media, supplemented with 10% heat-inactivated FBS and 10 mM Hepes pH 7.5. Briefly, cells were seeded in 96-well plates as set forth in Table 1 and incubated for 16-24 hours. Candidate compounds were serially diluted in DMSO, further diluted in cell culture media, and then added to cells (final DMSO concentration of 0.33%). Cells were incubated in the presence of candidate compound for 72 hours. MTS stock solution (MTS 2 gm/L, PMS […] in PBS) was added to the cells (final concentration MTS […] and PMS 7.67 mg/L) and incubated for 4 hours. SDS was added to a final concentration of 1.4% and absorbance at 490 nm was measured within two hours using a platereader. The IC50 was defined as the concentration of compound that results in a 50% reduction in the number of viable cells as compwered to control wells treated with DMSO only (0.33%) and was calculated using non-linear regression analyswas. IC50 values were given in Table 2 for the compounds listed.

[2] = test system: NCI-H69; experiment: Cell viability MTS assay; type: cell-based, human
Experimental: as §1

[3] = test system: MDA-MB-231; experiment: Cell viability MTS assay; type: cell-based, human
Experimental: as §1

[4] = test system: NCI-H446; experiment: Cell viability MTS assay; type: cell-based, human
Experimental: as §1

[5] = test system: HT29; experiment: Cell viability MTS assay; type: cell-based, human
Experimental: as §1

[6] = test system: PC-3; experiment: Cell viability MTS assay; type: cell-based, human; details: 72 hours with compound
Experimental: as §1

[7] = test system: MCF7; experiment: Cell viability MTS assay; type: cell-based, human; details: 72 hours with compound
Experimental: as §1

[8] = test system: SKOV-3; experiment: Cell viability MTS assay; type: cell-based, human; details: 72 hours with compound
Experimental: as §1

[9] = test system: K562; experiment: Cell viability MTS assay; type: cell-based, human; details: 72 hours with compound
Experimental: as §1

[10] = test system: SK-MEL-28; experiment: Cell viability MTS assay; type: cell-based, human; details: 72 hours with compound
Experimental: as §1

[11] = test system: A549; experiment: Cell viability MTS assay; type: cell-based, human; details: 72 hours with compound
Experimental: as §1

[12] = test system: HCT-116; experiment: Cell viability MTS assay; type: cell-based, human; details: 72 hours with compound
Experimental: as §1

[13] = test system: MDA-MB-231 cells; experiment: Colony counting, surviving fraction (Example 78); type: cell-based, human; details: two days incubation, colonies counted two weeks later; read-out: IC50 (surviving fraction equaled 50)
Experimental: MDA-MB-231 cells (ATCC# HTB-26), grown in DMEM plus 15% heat inactivated fetal bovine serum plus 10 mM HEPES pH 7.5, were plated in 60 mm plates (2×10^5 cells per plate). After two days candidate compounds in DMSO at various concentrations were diluted in media and added to individual plates such that the final DMSO concentration in the cell culture media was 0.1%. After two days incubation the culture was trypsinized, cells were washed with media, counted using a hemocytometer and 500 cells, including cell bodies, were plated in […] in media. Two weeks later the media was removed and the cell colonies were fixed with methanol for 10 minutes, stained with 1% crystal violet 10 minutes, washed with water and air dried. Cell colonies were visually counted when there were greater then 50 cells present per colony. Plating efficiency was defined as the average number of colonies formed divided by 500. The surviving fraction was defined as the plating efficiency of a candidate compound divided by the plating efficiency of DMSO multiplied by 100. For candidate compound titrations, the IC50 concentration was determined by fitting the equation y=AeBx to the data points and extrapolating the concentration where surviving fraction equaled 50. […]

[14] = Homo sapiens, MDA-MB-231, 72 hours with compound
[15] = Homo sapiens, HT-29, 72 hours with compound

| SMILES | IC50 ([1]; 72 hours with compound) [µM] | IC50 ([2]; 72 hours with compound) [µM] | IC50 ([3]; 72 hours with compound) [µM] | IC50 ([4]; 72 hours with compound) [µM] | IC50 ([5]; 72 hours with compound) [µM] | IC50 [3, 14] [µM] | IC50 [5, 15] [µM] | melting point [°C] | other results |
| --- | --- | --- | --- | --- | --- | --- | --- | --- | --- |
| O=C1NC(=O)[C@@H](c2cn3c4c(cccc24)CCC3)[C@@H]1c1cccs1 (racemic) [Example 47, (±)-Trans-3-(5,6-dihydro-4H-pyrrolo[3,2,1-ij]quinolin-1yl)-4-(2-thiophen-2-yl)pyrrolidine-2,5-dione] | 7.25 | 4.45 | 19.9 | 9.82 | 18.3 |  |  |  |  |
| O=C1NC(=O)[C@@H](c2cn3c4c(cccc24)CCC3)[C@@H]1c1ccccc1Cl (racemic) [Example 50, (±)-Trans-3-(5,6-dihydro-4H-pyrrolo[3,2,1-ij]quinolin-1yl)-4-(2-chlorophenyl)-pyrrolidine-2,5-dione] |  |  |  |  |  | 4.56 | 8.51 |  | IC50 ([1]; Homo sapiens, NCI-H82, 72 hours with compound): 4.65 µM; IC50 ([2]; Homo sapiens, NCI-H69, 72 hours with compound): 5.41 µM; IC50 ([4]; Homo sapiens, NCI-H446, 72 hours with compound): 4.22 µM |
| COc1cccc([C@@H]2C(=O)NC(=O)[C@H]2c2cn3c4c(cccc24)CCC3)c1 (racemic) [Example 68, (±)-Trans-3-(5,6-dihydro-4H-pyrrolo[3,2,1-ij]quinolin-1-yl)-4-(3-methoxyphenyl)pyrrolidine-2,5-dione] |  |  |  |  |  | 14.7 | 3.06 | 87 to 91 |  |
| O=C1NC(=O)[C@@H](c2cn3c4c(cccc24)CCC3)[C@@H]1c1cccc(O)c1 (racemic) [Example 69, (±)-Trans-3-(5,6-dihydro-4H-pyrrolo[3,2,1-ij]quinolin-1-yl)-4-(3-hydroxyphenyl)pyrrolidine-2,5-dione] |  |  |  |  |  | 65.9 | 55.4 | 108 to 110 |  |
| O=C1NC(=O)[C@@H](c2cn3c4c(cccc24)CCC3)[C@@H]1c1ccc(O)cc1 (racemic) [Example 72, (±)-Trans-3-(5,6-dihydro-4H-pyrrolo[3,2,1-ij]quinolin-1-yl)-4-(4-hydroxyphenyl)pyrrolidine-2,5-dione] |  |  |  |  |  | > 100 | > 100 | 105 to 107 |  |
| O=C1NC(=O)[C@@H](c2cn3c4c(cccc24)CCC3)[C@H]1c1c[nH]c2ccccc12 [3(R),4(S)-3-(5,6-dihydro-4H-pyrrolo[3,2,1-ij]quinolin-1-yl)-4(1H-indol-3-yl)pyrrolidine-2,5-dione] | 1.49 | 1.85 | 3.69 | 1.27 | 5.5 |  |  |  |  |
| O=C1NC(=O)[C@@H](c2c[nH]c3ccccc23)[C@H]1c1cn2c3c(cccc13)CCC2 [3(S),4(R)-3-(5,6-dihydro-4H-pyrrolo[3,2,1-ij]quinolin-1-yl)-4(1H-indol-3-yl)pyrrolidine-2,5-dione] | 1.77 | 2.07 | 5.17 | 1.42 | 9.71 |  |  |  |  |
| O=C1NC(=O)[C@@H](c2cn3c4c(cccc24)CCC3)[C@@H]1c1c[nH]c2ccccc12 [(+)-3(S),4(R)-3-(5,6-dihydro-4H-pyrrolo[3,2,1-ij]quinolin-1-yl)-4(1H-indol-3-yl)pyrrolidine-2,5-dione] | 9.83 | 10.5 | 26.8 | 8.55 | 30.1 |  |  |  | IC50 [6]: 18.7 µM; IC50 [7]: > 100 µM; IC50 [8]: 4.45 µM; IC50 [9]: 4.52 µM; IC50 [10]: 25.5 µM; IC50 [11]: 27.9 µM; IC50 [12]: 14.4 µM; IC50 [13]: 4.1 µM |
| COc1cccc(C2=C(c3cn4c5c(cccc35)CCC4)C(=O)NC2=O)c1 [Example 65, 3-(5,6-dihydro-4H-pyrrolo[3,2,1-ij]quinolin-1-yl)-4-(3-methoxyphenyl)-1H-pyrrole-2,5-dione] |  |  |  |  |  | 60.8 | 35 | 99 to 101 |  |
| O=C1NC(=O)C(c2cn3c4c(cccc24)CCC3)=C1c1ccc(OCc2ccccc2)cc1 [Example 66, 3-[4-(benzyloxy)phenyl]-4-(5,6-dihydro-4H-pyrrolo[3,2,1-ij]quinolin-1-yl)-1H-pyrrole-2,5-dione] |  |  |  |  |  | > 100 | > 100 | 262 to 265 |  |
